Laboratory results as given in paper PMC9494668 (ACS Omega, 2022).
Values after ≈ are worked out from the molar mass of the structure shown. Like-named read-outs stand apart in the source and are kept apart here.

What was measured:
[1] = system: Streptococcus faecalis ATCC 29212; experiment: Microtitre broth dilution MIC, Streptococcus faecalis; type: cell-based; settings: Enterococcus faecalis, ATCC29212, read-out: MIC, SF
[2] = system: methicillin-susceptible strains of Staphylococcus aureus ATCC 29213; experiment: Microtitre broth dilution MIC, MSSA; type: cell-based; settings: ATCC29213|MSSA, read-out: MIC, MSSA
[3] = system: H69PR human small cell lung cancer cell line; experiment: MTT cytotoxicity, H69PR; type: cell-based; settings: 48 h, read-out: Anticancer activity IC50, H69PR
[4] = system: C26 colon carcinoma cell line; experiment: MTT cytotoxicity, C26; type: cell-based; settings: 48 h, read-out: Anticancer activity IC50, C26
[5] = system: Escherichia coli ATCC 25922; experiment: Microtitre broth dilution MIC, Escherichia coli; type: cell-based; settings: ATCC25922, read-out: MIC, EC
[6] = system: HepG2 human hepatocyte carcinoma cell line; experiment: MTT cytotoxicity, HepG2; type: cell-based; settings: HepG2, 48 h, read-out: Anticancer activity IC50, HepG2
[7] = system: Aspergillus niger ATCC 16404; experiment: microbe, parasite or virus in culture; type: cell-based
[8] = system: methicillin-resistant strains of Staphylococcus aureus ATCC 43300; experiment: Microtitre broth dilution MIC, MRSA; type: cell-based; settings: ATCC43300|MRSA, read-out: MIC, MRSA
[9] = system: Pseudomonas aeruginosa ATCC 27853; experiment: Microtitre broth dilution MIC, Pseudomonas aeruginosa; type: cell-based; settings: ATCC27853, read-out: MIC, PA
[10] = system: MCF7 human breast cancer cell line; experiment: MTT cytotoxicity, MCF7; type: cell-based; settings: MCF7, 48 h, read-out: Anticancer activity IC50, MCF7
[11] = system: Salmonella enterica ATCC 10428; experiment: Microtitre broth dilution MIC, Salmonella enterica; type: cell-based; settings: ATCC10428, read-out: MIC, SE
[12] = system: Candida albicans ATCC 10321; experiment: microbe, parasite or virus in culture; type: cell-based
VEGFR-2 = VEGFR-2 (Homo sapiens, UniProt P35968); experiment: In vitro VEGFR-2 kinase inhibition assay; type: biochemical; settings: for IC50: IC50 VEGFR-2 inhibitory activity, IC50 ± SEM; for inhibitory activity on VEGFR-2 relative to DHFR: times better on the VEGFR-2 receptor than the DHFR receptor
[13] = system: bacterial strains (EC, PA, SF, SE, MSSA, MRSA) and fungi (CA, AN); experiment: Microtitre broth dilution MIC, stated over several strains; type: cell-based
DHFR = biological target: T1, DHFR (Homo sapiens, UniProt P00374); experiment: In vitro dihydrofolate reductase inhibition assay; type: biochemical; settings: IC50 DHFR inhibitory activity, IC50 ± SEM
T1 sequence (P00374 1-187): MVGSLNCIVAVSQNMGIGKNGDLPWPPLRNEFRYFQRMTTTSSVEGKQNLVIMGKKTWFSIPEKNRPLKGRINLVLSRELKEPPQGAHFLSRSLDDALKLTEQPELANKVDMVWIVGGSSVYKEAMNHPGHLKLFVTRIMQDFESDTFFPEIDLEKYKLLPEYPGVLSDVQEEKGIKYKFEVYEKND

[14] = system: Candida albicans, Candida glabrata, Candida krusei, and Candida tropicalis; settings: cited from earlier work
drug-resistant fungi = settings: ref [17]; cited from earlier work

Sequence of VEGFR-2 (P35968 20-1356): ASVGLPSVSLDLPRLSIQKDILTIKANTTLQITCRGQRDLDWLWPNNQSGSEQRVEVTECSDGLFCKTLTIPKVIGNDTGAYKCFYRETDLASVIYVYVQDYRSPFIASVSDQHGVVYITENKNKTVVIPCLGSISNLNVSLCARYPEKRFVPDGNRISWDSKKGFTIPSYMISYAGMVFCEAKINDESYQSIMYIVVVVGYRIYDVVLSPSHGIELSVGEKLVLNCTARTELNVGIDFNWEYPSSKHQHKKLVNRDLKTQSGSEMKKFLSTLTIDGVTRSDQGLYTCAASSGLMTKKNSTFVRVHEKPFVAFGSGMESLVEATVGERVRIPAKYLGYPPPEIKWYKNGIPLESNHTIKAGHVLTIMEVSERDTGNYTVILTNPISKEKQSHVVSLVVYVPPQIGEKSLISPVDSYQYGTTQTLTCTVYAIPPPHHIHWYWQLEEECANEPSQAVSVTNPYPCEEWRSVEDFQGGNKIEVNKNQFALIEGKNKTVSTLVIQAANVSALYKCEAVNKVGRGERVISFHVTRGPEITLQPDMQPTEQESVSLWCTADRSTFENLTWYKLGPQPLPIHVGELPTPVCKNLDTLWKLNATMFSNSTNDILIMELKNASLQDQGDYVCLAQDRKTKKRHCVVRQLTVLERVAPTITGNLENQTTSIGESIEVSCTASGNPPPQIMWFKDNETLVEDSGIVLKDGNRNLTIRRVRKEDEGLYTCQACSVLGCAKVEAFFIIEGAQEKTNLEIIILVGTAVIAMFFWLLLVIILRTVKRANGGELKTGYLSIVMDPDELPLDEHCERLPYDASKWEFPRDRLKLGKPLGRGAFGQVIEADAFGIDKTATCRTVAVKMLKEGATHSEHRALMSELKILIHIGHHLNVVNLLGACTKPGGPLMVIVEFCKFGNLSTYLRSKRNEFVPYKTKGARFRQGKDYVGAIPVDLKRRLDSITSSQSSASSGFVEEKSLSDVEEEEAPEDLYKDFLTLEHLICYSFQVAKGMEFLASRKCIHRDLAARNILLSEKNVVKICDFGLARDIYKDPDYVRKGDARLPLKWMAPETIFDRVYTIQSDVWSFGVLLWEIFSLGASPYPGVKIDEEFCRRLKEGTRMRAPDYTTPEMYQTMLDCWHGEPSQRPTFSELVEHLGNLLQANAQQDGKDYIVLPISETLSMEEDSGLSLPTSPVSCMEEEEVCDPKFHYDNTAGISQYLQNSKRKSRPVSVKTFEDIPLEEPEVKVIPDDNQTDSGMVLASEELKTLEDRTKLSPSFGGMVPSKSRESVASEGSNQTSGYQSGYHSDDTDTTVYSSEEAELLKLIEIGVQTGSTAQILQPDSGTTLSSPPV

SMILES	MIC [1] [µg/mL]	MIC [2] [µg/mL]	IC50 [3] [µM]	IC50 [4] [µM]	MIC [5] [µg/mL]	IC50 [6] [µM]	MIC [8] [µg/mL]	MIC [9] [µg/mL]	IC50 [10] [µM]	MIC [11] [µg/mL]	MIC ([7]; ATCC16404, read-out: MIC, AN) [µg/mL]	MIC ([12]; ATCC10321, read-out: MIC, CA) [µg/mL]	further results
COc1ccc(CNC(=O)c2cc(O)c3cc(OC)cc(OC)c3c2)cc1 [6a, 4-Hydroxy-6,8-dimethoxy-N-(4-methoxybenzyl)-2-naphthamide]	64 (≈ 174 µM)	32 (≈ 87.1 µM)	29.2 ± 2.65	14.4 ± 1.62	64 (≈ 174 µM)	17.4 ± 1.51	128 (≈ 348 µM)	64 (≈ 174 µM)	15.9 ± 1.28	64 (≈ 174 µM)	–	–	MIC ([7]; ATCC16404, 72 h, read-out: MIC, AN): 256 µg/mL (≈ 697 µM); MIC ([12]; ATCC10321, 72 h, read-out: MIC, CA): 256 µg/mL (≈ 697 µM)
COc1cc(OC)c2c(O)cc(C(=O)NCc3ccc(C)cc3)cc2c1 [5b, 4-Hydroxy-5,7-dimethoxy-N-(4-methylbenzyl)-2-naphthamide]	32 (≈ 91.1 µM)	16 (≈ 45.5 µM)	28.4 ± 3.7	3.59 ± 1.04	64 (≈ 182 µM)	8.38 ± 1.14	32 (≈ 91.1 µM)	64 (≈ 182 µM)	6.75 ± 1.95	32 (≈ 91.1 µM)	256 (≈ 729 µM)	64 (≈ 182 µM)	IC50 (VEGFR-2): 0.623 ± 0.056 µM; inhibitory activity on VEGFR-2 relative to DHFR (VEGFR-2): 15–20 times; MIC ([13]; Staphylococcus aureus, MRSA|MSSA, read-out: MIC against SE, SF, MSSA, and MRSA): 16 to 32 µg/mL (≈ 45.5 to 91.1 µM); IC50 (DHFR): 9.09 ± 0.511 µM
OC(Cn1cncn1)(Cn1cncn1)c1ccc(F)cc1F [Flu, fluconazole, reference compound]	–	–	–	–	–	–	–	–	–	–	128 (≈ 418 µM)	4 (≈ 13.1 µM)	MIC50, Candida species ([14]; Candida albicans, glabrata, krusei, tropicalis, ref [17]): 0.25 to 2.00 µg/mL; MIC50, drug-resistant fungi (drug-resistant fungi): > 16 µg/mL
COc1cc(OC)c2cc(C(=O)NCCCN3CCOCC3)cc(O)c2c1 [4a, 4-Hydroxy-6,8-dimethoxy-N-(3-morpholinopropyl)-2-naphthamide]	128 (≈ 342 µM)	64 (≈ 171 µM)	52.2 ± 4.81	23.8 ± 2.93	128 (≈ 342 µM)	14.5 ± 2.02	256 (≈ 684 µM)	128 (≈ 342 µM)	16.1 ± 2.42	64 (≈ 171 µM)	256 (≈ 684 µM)	128 (≈ 342 µM)	–
COc1cc(OC)c2c(O)cc(C(=O)NCc3ccc(Cl)cc3)cc2c1 [8b, N-(4-chlorobenzyl)-4-hydroxy-5,7-dimethoxy-2-naphthamide]	16 (≈ 43 µM)	8 (≈ 21.5 µM)	12.8 ± 2.83	2.97 ± 0.98	16 (≈ 43 µM)	7.12 ± 1.25	16 (≈ 43 µM)	64 (≈ 172 µM)	3.58 ± 1.06	16 (≈ 43 µM)	256 (≈ 689 µM)	64 (≈ 172 µM)	IC50 (VEGFR-2): 0.384 ± 0.047 µM; inhibitory activity on VEGFR-2 relative to DHFR (VEGFR-2): 15–20 times; fold antibacterial activity relative to compound 5b ([13]; strains SF, SE, MSSA, and MRSA): more than 2 fold; IC50 (DHFR): 7.88 ± 0.442 µM
COc1ccc(CNC(=O)c2cc(O)c3c(OC)cc(OC)cc3c2)cc1 [6b, 4-Hydroxy-5,7-dimethoxy-N-(4-methoxybenzyl)-2-naphthamide]	32 (≈ 87.1 µM)	32 (≈ 87.1 µM)	28.5 ± 3.29	12.3 ± 2.15	64 (≈ 174 µM)	14 ± 1.4	32 (≈ 87.1 µM)	128 (≈ 348 µM)	13.3 ± 2.69	32 (≈ 87.1 µM)	256 (≈ 697 µM)	64 (≈ 174 µM)	–
CN(C/C=C/c1ccccc1)Cc1cccc2ccccc12 [naftifine]	–	–	–	–	–	–	–	–	–	–	–	–	MIC50, Candida species [14]: 0.25 to 2.00 µg/mL
CC(=O)O[C@H]1C(=O)[C@@]2(C)[C@H]([C@H](OC(=O)c3ccccc3)[C@]3(O)C[C@H](OC(=O)[C@H](O)[C@@H](NC(=O)c4ccccc4)c4ccccc4)C(C)=C1C3(C)C)[C@]1(OC(C)=O)CO[C@@H]1C[C@@H]2O [PTX, paclitaxel, reference compound]	–	–	7.29 ± 0.91	3.96 ± 0.54	–	5.75 ± 0.6	–	–	2.85 ± 0.43	–	–	–	–
COc1cc(OC)c2c(O)cc(C(=O)NCc3ccc(Br)cc3)cc2c1 [7b, N-(4-bromobenzyl)-4-hydroxy-5,7-dimethoxy-2-naphthamide]	32 (≈ 76.9 µM)	32 (≈ 76.9 µM)	21.3 ± 3.04	9.83 ± 1.54	64 (≈ 154 µM)	12.1 ± 1.09	64 (≈ 154 µM)	64 (≈ 154 µM)	11.5 ± 1.61	32 (≈ 76.9 µM)	256 (≈ 615 µM)	64 (≈ 154 µM)	–
O=C(O)c1cn(C2CC2)c2cc(N3CCNCC3)c(F)cc2c1=O [Cipro, ciprofloxacin, reference compound]	8 (≈ 24.1 µM)	8 (≈ 24.1 µM)	–	–	16 (≈ 48.3 µM)	–	16 (≈ 48.3 µM)	16 (≈ 48.3 µM)	–	8 (≈ 24.1 µM)	–	–	–
COc1cc(OC)c2c(O)cc(C(=O)NCCCN3CCOCC3)cc2c1 [4b, 4-Hydroxy-5,7-dimethoxy-N-(3-morpholinopropyl)-2-naphthamide]	128 (≈ 342 µM)	64 (≈ 171 µM)	53.7 ± 3.55	25.1 ± 3.23	128 (≈ 342 µM)	17.8 ± 2.46	256 (≈ 684 µM)	128 (≈ 342 µM)	18.6 ± 1.84	64 (≈ 171 µM)	256 (≈ 684 µM)	64 (≈ 171 µM)	–
COc1cc(OC)c2cc(C(=O)NCc3ccc(Br)cc3)cc(O)c2c1 [7a, N-(4-bromobenzyl)-4-hydroxy-6,8-dimethoxy-2-naphthamide]	64 (≈ 154 µM)	–	23 ± 2.87	18.5 ± 1.73	64 (≈ 154 µM)	16.7 ± 1.68	128 (≈ 307 µM)	64 (≈ 154 µM)	19.8 ± 1.59	64 (≈ 154 µM)	256 (≈ 615 µM)	128 (≈ 307 µM)	–
COc1cc(OC)c2cc(C(=O)NCc3ccc(C)cc3)cc(O)c2c1 [5a, 4-Hydroxy-6,8-dimethoxy-N-(4-methylbenzyl)-2-naphthamide]	64 (≈ 182 µM)	–	34.2 ± 5.64	9.21 ± 2.3	64 (≈ 182 µM)	13.6 ± 1.37	128 (≈ 364 µM)	64 (≈ 182 µM)	10.3 ± 2.11	64 (≈ 182 µM)	256 (≈ 729 µM)	128 (≈ 364 µM)	–
COc1cc(OC)c2cc(C(=O)NCc3ccc(Cl)cc3)cc(O)c2c1 [8a, N-(4-chlorobenzyl)-4-hydroxy-6,8-dimethoxy-2-naphthamide]	64 (≈ 172 µM)	32 (≈ 86.1 µM)	25.4 ± 3.02	8.61 ± 1.49	64 (≈ 172 µM)	10.1 ± 1.17	128 (≈ 344 µM)	64 (≈ 172 µM)	12.4 ± 1.34	64 (≈ 172 µM)	256 (≈ 689 µM)	64 (≈ 172 µM)	–
